In US9750727B2 (priority 2010, dated 2017):

System: drug-resistant clinical isolates of M. tuberculosis
Type: cell-based

Which “MIC for 88.8% of cultures” value does the source give for `NC(=S)NN=Cc1ccncc1.[O-][Cl+3]([O-])([O-])O` [new treatment] here?
Its value is 3.125 to 6.25 µg/mL.
